IC50 and viability, T/C data for 2 compounds are collected here from PubChem BioAssay AID1963431 (Molecular Pharmacology Branch, DTP, NCI, 2024).

The subject of this test is Rh18 complex spheroid viability, percent test/control. The test can be described thus: Anticancer human tumor Rh18 cell line growth inhibition [Asc].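 For all read-outs here: spheroids exposed to compound for 7 days.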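 For viability, T/C: 100% = DMSO vehicle control wells.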 Particulars: for viability, T/C: stronger effect = lower value. The procedure, abridged: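 Complex solid-tumor spheroids incorporating human endothelial and mesenchymal stem cells received single agents or combinations over half-log dilution ranges anchored to clinical Cmax.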

The structures appear in SMILES notation. Several values for one entry are separate records, joined by “and”; a condition that tells them apart may be missing. Equal values may be shown once.

As for `C#Cc1c(F)ccc2cc(O)cc(-c3ncc4c(N5CC6CCC(C5)N6)nc(OCC56CCCN5CC(F)C6)nc4c3F)c12` (configuration not stated) + CCN1C(C(=O)NC23CCC(C(=O)O)(CC2)CC3)C(c2cccc(Cl)c2F)C2(C(=O)Nc3cc(Cl)ccc32)C12CCCCC2, the IC50 (commonly the concentration that inhibits the measured activity by half) was below 31.6 nM (curve of first compound, second compound 0.03 µM); below 31.6 nM (curve of first compound, second compound 0.0949 µM); below 31.6 nM (curve of first compound, second compound 0.3 µM); below 31.6 nM (curve of first compound, second compound 0.949 µM); below 31.6 nM (curve of first compound, second compound 3 µM). The viability, T/C (usually the ratio of treated to control) was 42.7% (second compound 0.03 µM, first compound 0.0316 µM); 45.1% (second compound 0.03 µM, first compound 0.1 µM); 43.9% (second compound 0.03 µM, first compound 0.316 µM); 40.4% (second compound 0.03 µM, first compound 1 µM); 41.8% (second compound 0.03 µM, first compound 3.16 µM); 46.6% (second compound 0.03 µM, first compound 10 µM). The viability, T/C reads like this: (second compound 0.0949 µM, first compound 0.0316 µM) 25.1%; (second compound 0.0949 µM, first compound 0.1 µM) 24.1%; (second compound 0.0949 µM, first compound 0.316 µM) 22.1%; (second compound 0.0949 µM, first compound 1 µM) 28.2%; (second compound 0.0949 µM, first compound 3.16 µM) 23.6%; (second compound 0.0949 µM, first compound 10 µM) 25.3%. Further, the viability, T/C is, setting by setting: (second compound 0.3 µM, first compound 0.0316 µM) 13.1%; (second compound 0.3 µM, first compound 0.1 µM) 13.9%; (second compound 0.3 µM, first compound 0.316 µM) 14.4%; (second compound 0.3 µM, first compound 1 µM) 12.6%; (second compound 0.3 µM, first compound 3.16 µM) 15.6%; (second compound 0.3 µM, first compound 10 µM) 13.7%. Further, the viability, T/C runs as follows: (second compound 0.949 µM, first compound 0.0316 µM) 11.7%; (second compound 0.949 µM, first compound 0.1 µM) 12.7%; (second compound 0.949 µM, first compound 0.316 µM) 11%; (second compound 0.949 µM, first compound 1 µM) 12.4%; (second compound 0.949 µM, first compound 3.16 µM) 12.3%; (second compound 0.949 µM, first compound 10 µM) 10.5%. In addition, the viability, T/C by setting is: (second compound 3 µM, first compound 0.0316 µM) 8.99%; (second compound 3 µM, first compound 0.1 µM) 12.6%; (second compound 3 µM, first compound 0.316 µM) 12.4%; (second compound 3 µM, first compound 1 µM) 11.5%; (second compound 3 µM, first compound 3.16 µM) 8.93%; (second compound 3 µM, first compound 10 µM) 11.6%.
Take `CCN1CCN(Cc2ccc(Nc3ncc(F)c(-c4cc(F)c5nc(C)n(C(C)C)c5c4)n3)nc2)CC1`: the viability, T/C reads like this: (compound 0.00316 µM) 88.8% and 66.9% and 96.3%; (compound 0.01 µM) 115% and 84.9% and 92.1%; (compound 0.0316 µM) 85.2% and 77.4% and 70.8%; (compound 0.1 µM) 66.5% and 65.2% and 78.4%; (compound 0.316 µM) 85.7% and 111% and 72.7%; (compound 1 µM) 143% and 152% and 65.1%. Besides, the IC50 (curve of compound) is above 1000 nM.
